In patent US20170226120A1, “INHIBITORS OF HIF PROLYL HYDROXYLASE” (MERCK SHARP & DOHME CORP., priority 2014, published 2017):
Read-outs that look alike come from different tables or passages of the source.

Legend:
human HIF-PHD2 = biological target: T1, human HIF-PHD2 (Homo sapiens, UniProt Q9GZT9); assay: HIF-PHD2 inhibition, time resolved fluorescence assay of HIF-1α peptide hydroxylation; assay type: biochemical; details: FLAG-tagged full length PHD2; 0.2 μM 2-oxoglutarate, 0.5 μM HIF-1α peptide
T1 construct: FLAG-tagged full length PHD2 expressed in and purified from baculovirus-infected Sf9 cells; FLAG; made in house; host or cells: baculovirus-infected Sf9 cells
Protocol: To each well of a 384-well plate, 1 μL of test compounds in DMSO (final concentration ranging from 0.3 nM to 10 uM) were added into 20 μl of assay buffer (50 mM Tris pH 7.4/0.01% Tween-20/0.1 mg/ml bovine serum albumin/10 μM ferrous sulfate/1 mM sodium ascorbate/20 μg/ml catalase) containing 0.15 μg/ml FLAG-tagged full length PHD2 expressed in and purified from baculovirus-infected Sf9 cells. After a 5 min preincubation at room temperature, the enzymatic reactions were initiated by the addition of 4 μL of substrates {final concentrations of 0.2 μM 2-oxoglutarate and 0.5 μM HIF-1α peptide biotinyl-[…] […] After incubation for 45 minutes at room temperature, the reactions were terminated by the addition of a 25 μL quench/detection mix to a final concentration of 1 mM ortho-phenanthroline, 0.1 mM EDTA, 0.5 nM anti-(His)6 LANCE reagent (Perkin-Elmer Life Sciences), 100 nM AF647-labeled streptavidin (Invitrogen), and 2 μg/ml (His)6-VHL complex {S. Tan Protein Expr. Purif.

[1] = Tissue PK profile in rat (liver and plasma drug level); assay type: in vivo; details: 10 mg/kg, 4 hours after PO dosing at 10 mpk, vehicle 0.5% MC; for concentration at 4 h: po; for Kp at 4 h: liver/plasma, read-out: liver/plasma ratio
Protocol: The tissue PK profile of compounds described in this application were evaluated in rat. The tissue was harvested 4 hours after PO dosing at 10 mpk (vehicle: 0.5% MC; dose volume: 5 mL/Kg) and the drug level was determined. Shown in Table 1 are compound concentrations of selected examples in rat liver and plasma, as well as liver to plasma drug ratio.

[2] = liver, read-out: liver concentration
[3] = plasma, read-out: plasma concentration

T1 sequence (Q9GZT9 whole entry): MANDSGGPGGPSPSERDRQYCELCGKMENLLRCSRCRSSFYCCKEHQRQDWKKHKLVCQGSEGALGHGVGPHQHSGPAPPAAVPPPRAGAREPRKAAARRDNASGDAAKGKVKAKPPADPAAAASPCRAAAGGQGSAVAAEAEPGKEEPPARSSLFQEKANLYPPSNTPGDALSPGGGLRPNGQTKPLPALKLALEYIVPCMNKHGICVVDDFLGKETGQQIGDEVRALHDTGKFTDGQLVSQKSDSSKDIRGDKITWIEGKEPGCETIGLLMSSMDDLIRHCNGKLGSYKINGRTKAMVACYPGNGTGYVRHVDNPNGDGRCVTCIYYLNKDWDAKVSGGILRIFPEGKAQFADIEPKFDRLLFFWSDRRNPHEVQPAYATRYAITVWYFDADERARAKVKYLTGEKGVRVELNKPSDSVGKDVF

Row | Compound | IC50 (human HIF-PHD2) [nM] | concentration at 4 h [1, 2] [nM] | Kp at 4 h [1] | concentration at 4 h [1, 3] [nM]
1 | NC(=O)c1ccc(-c2ccc(Cn3c4c(c(O)c(C(=O)NCC(=O)O)c3=O)COC4)cc2)cc1 [Example 61, 2-(1-((4′-carbamoyl-[1,1′-biphenyl]-4-yl)methyl)-4-hydroxy-2-oxo-1,2,5,7-tetrahydrofuro[3,4-b]pyridine-3-carboxamido)acetic acid] | 1.1 | 25.8 | 4.89 | 5.28
2 | N#Cc1ccc(-c2ccc(Cn3c4c(c(O)c(C(=O)NCC(=O)O)c3=O)COC4)cc2)cc1 [Example 24, 2-(1-((4′-cyano-[1,1′-biphenyl]-4-yl)methyl)-4-hydroxy-2-oxo-1,2,5,7-tetrahydrofuro[3,4-b]pyridine-3-carboxamido)acetic acid] | 1.5 | 642 | 30.4 | 13.7
3 | N#Cc1ccc(Cn2c3c(c(O)c(C(=O)NCC(=O)O)c2=O)COC3)cc1 [Example 6, 2-(1-(4-Cyanobenzyl)-4-hydroxy-2-oxo-1,2,5,7-tetrahydrofuro[3,4-b]pyridine-3-carboxamido)acetic acid] | 3.1 | 1820 | 17.9 | 123
4 | Cc1cc(Cl)ccc1Cn1c2c(c(O)c(C(=O)NCC(=O)O)c1=O)COC2 [Example 42, 2-(1-(4-chloro-2-methylbenzyl)-4-hydroxy-2-oxo-1,2,5,7-tetrahydrofuro[3,4-b]pyridine-3-carboxamido)acetic acid] | 4.1 | 54200 | 35.6 | 1520
